Assays:
[1] = tested on: NQO1; experiment: NQO1 enzyme induction test (in vitro) in Hepa1c1c7 cells; format: cell-based; conditions: Mus musculus, Hepa-1c1c7, 48 h, concentration to elevate the NQO1 activity by 1.5 times, about 48 hours, read-out: EC150
Protocol: Each NQO1 assay was carried out by modifying a known method (Anal Biochem 1998; 169: 328-, Methods Enzymol 2004; 382: 243-). Hepa1c1c7 cells (mouse hepatocyte line manufacture by DS Pharma Biomedical Co., Ltd., REF. No. 95090613) were cultured (5% CO2, 37° C.). The cells were cultured in MEMα (manufactured by FUJIFILM Wako Pure Chemical Corporation, REF. 135-15175) medium comprising 10% FBS (manufactured by GIBCO, REF. 10082) and […]/streptomycin/amphotericin B (manufactured by GIBCO, REF. 15240), and dispensed into a 96 well plate (manufactured by Costar, REF. 3610) at 2.0×10^3 cells/well. On the next day, test compound (final concentration of […]: 0.1%) dissolved into DMSO (manufactured by FUJIFILM Wako Pure Chemical Corporation, REF. 043-07216) was added to each well, and the plate was further cultured for about 48 hours.
A cell lysate manufactured by Cell signaling Technology, Inc. (REF. 9803) with the addition of a Protease Inhibitor manufactured by Roche Diagnostics K.K. (REF. 11-873580001) was used. A reaction solution (which is a solution comprising trishydrochloric acid (25 mM), albumin […], Tween-20 (0.01%), glucose-6-phosphate dehydrogenase (2 U/mL), flavin-adenine dinucleotide (5 μM), glucose-6-phosphate (1 μM), nicotinamide adenine dinucleotide phosphate (30 μM), 3-(4,5-dimethyl-2-thiazolyl)-2,5-diphenyltetrazolium bromide (MTT) (0.03%), and menadione (50 μM)), and a stop solution (which is a solution comprising dicumarol (0.3 mM) and potassium dihydrogen phosphate (5 mM), pH 7.4) were prepared. After the medium was removed, cell lysate (50 μL) was added thereto, and the resulting mixture was shaken at room temperature for 20 minutes. The reaction solution (200 μL) was added thereto, and the resulting mixture was left to stand at room temperature for 5 minutes. The stop solution (50 μL) was added thereto, and absorbance at 540 nm (reference 750 nm) was measured.
Cell number was measured by Cell Titer Glo assay (manufactured by Promega Corporation, REF. G9242) by using another plate prepared according to the same conditions as those described above, and correction of absorbance was carried out. The test result was analyzed by Excel, and the EC150 value which is the concentration to elevate the NQO1 activity by 1.5 times was calculated.

[2] = molecular target: T1, GST fusion human Keap1 (amino acid residue: 325-624) protein (Homo sapiens, UniProt Q14145); experiment: Keap1-Nrf2 binding inhibition test (fluorescence polarization); conditions: compound concentration of 100 nM; read-out: inhibition rate
T1 construct: GST fusion human Keap1 (amino acid residue: 325-624) protein; purchased Protein tech Ag0779
Protocol: The inhibitory activity of each test compound on the binding between Nrf2 and Keap1 was measured by the fluorescence polarization method. A solution consisting of 20 mM tris-hydrochloride pH7.5 (NIPPON GENE CO., LTD., REF: 318-90225), 150 mM NaCl [FUJIFILM Wako Pure Chemical. Corporation, REF: 191-01665], 0.05% Tween 20 (BioRAD, REF: 161-0781), and 5 mM DTT (FUJIFILM Wako Pure Chemical Corporation, REF: 049-08972) was used as a buffer solution. To a test compound solution (70 μL) adjusted to each concentration with 10% DMSO (FUJIFILM Wako Pure Chemical Corporation, REF: 043-07216) was added a buffer solution (350 μL) comprising 6 nM FITC-labeled Nrf2 peptide (FITC-Ahx-LDEETGEFL-NH2, Invitrogen) and 0.2 mg/mL of BSA (FUJIFILM Wako Pure Chemical Corporation, REF: 017-22231). Each 120 μL of the resulting mixture was dispensed into a black 96 well plate, and a buffer solution (80 μL) comprising 2.5 nM GST fusion human Keap1 (amino acid residue: 325-624) protein (Protein tech, REF: Ag0779) was added thereto. A Keap1-free buffer solution was added to some wells to prepare negative controls. Meanwhile, compound-free wells were used as positive controls. The plate was incubated at room temperature for 30 minutes, and each fluorescence polarization at excitation wavelength of 482 nm and fluorescence wavelength of 530 nm was measured by using a plate reader Clariostar (BMG Labtech). The fluorescence polarization of the negative control was set to be 100% inhibition, fluorescence polarization of the positive control was set to be 0% inhibition, and the inhibition rate of each test compound at 100 nM was calculated by using the following equation. Inhibition rate (%)=100−((Fluorescence polarization when test compound was added−Fluorescence polarization of negative control)/(Fluorescence polarization of positive control−Fluorescence polarization of negative control))×100

[3] = tested on: NQO1; experiment: NQO1 expression induction test in mouse kidney (single administration); format: in vivo; conditions: Mus musculus, po, 6 h, BALB/c mouse kidney, 6 hours after administration, ratio to control group
Protocol: Each test compound solution for administration was prepared by dissolving or suspending each test compound into a 0.5 w/v % aqueous solution of methylcellulose (0.5% MC) (manufactured by Wako Pure Chemical Industries, Ltd.).
Each prepared test compound was orally administered to a BALB/c mouse (female, provided by Charles River Laboratories Japan, Inc.). Non-treated group was used as a control group. After 6 hours from the administration, each mouse was anesthetized with isoflurane, and euthanized with bloodletting by incising a lower aorta. Immediately, the left kidney was excised, cut into small pieces, and then the cut kidney pieces were transferred to RNA later (Thermo Fisher Scientific).
Then, mRNA was extracted from the collected kidney pieces by using NucleoSpin (registered trademark) RNA Kit (Takara Bio Inc.), each concentration was quantified by FlexStation3 (Molecular Devices), and then the concentration was adjusted to a constant concentration. A reverse transcription synthesis of cDNA was carried out from the mRNA with the constant concentration by using PrimeScript™ RT reagent Kit with gDNA Eraser and PCR Thermal Cycler (Takara Bio Inc.). Then, in addition to the resulting cDNA, SYBR (registered trademark) Premix Ex Taq™ II and NQO1, GAPDH primer (Takara Bio Inc.) were used to carry out Real-time PCR by PCR Thermal Cycler Dice Real time (Takara Bio Inc.), and the NQO1 expression was quantified by using the GAPDH expression as the reference.
In order to evaluate the NQO1 expression induction in each group, the NQO1 expression induction ratio was calculated by using the following equation. (NQO1 expression induction ratio)=(Average NQO1 expression in test compound administered group)[…](Average NQO1 expression in control group)

[4] = Metabolism test using human liver microsome fractions; format: in vitro ADME; conditions: human liver microsomes, test compound 10 μmol/L, NADPH and UDP-glucuronic acid, 37° C.
Protocol: A reaction composition solution (comprising NADPH Regenerating System, Solution A (manufactured by Corning Inc., REF. 451220) (50 μL), NADPH Regenerating System, Solution B (manufactured by Corning Inc., REF. 451200) (10 μL), 250 mM UDP-glucuronic acid (40 μL), UGT Reaction Mix Solution B (manufactured by Corning Inc., REF. 451320) (200 μL), and distilled water (640 μL)) in which human liver microsomes (manufactured by Xenotech, Cat. No. H610) or monkey liver microsomes (manufactured by Xenotech, Cat. No. P2000) (corresponding to 1 mg of protein) were suspended was prepared. After the solution was incubated at 37° C. for 5 minutes, each test compound dissolved into DMSO (manufactured by FUJIFILM Wako Pure Chemical Corporation, Code No. 043-07216) was added to the solution so that the final concentration was set to be 10 μmol/L, and a reaction was initiated. After 0, 5, 10, 15, 20, and 30 minute(s) from the initiation of the metabolism reaction, 100 μL of the reaction solution was taken out of the reaction system, and added to 200 μL of acetonitrile to stop the reaction. After the reaction was completed, the reaction solution was subjected to a work-up such as deproteinization, and then subjected to an UV-HPLC analysis to carry out the following analysis.
The peak area of each test compound was calculated by LabSolution software (Shimadzu Corporation), and the residual ratio (%) at each culture time of test material was calculated by the following equation. Residual ratio (%)=Peak area at each culture time[…]Peak area at 0 (initial time)
Next, the residual amount (nmol/mg/mL) at each culture time of test material was calculated by the following equation. Residual amount (nmol/mg/mL)=Initial concentration of reaction solution (10 nmol/mg/mL)×residual ratio÷100
Finally, a graph in which the reaction time was plotted at horizontal axis and the residual amount was plotted at longitudinal axis was prepared on Excel, and the inclination was calculated as the elimination rate (pmol/min/mg-P) within the time range in which the graph was deemed linear.

T1 sequence (Q14145 325-624): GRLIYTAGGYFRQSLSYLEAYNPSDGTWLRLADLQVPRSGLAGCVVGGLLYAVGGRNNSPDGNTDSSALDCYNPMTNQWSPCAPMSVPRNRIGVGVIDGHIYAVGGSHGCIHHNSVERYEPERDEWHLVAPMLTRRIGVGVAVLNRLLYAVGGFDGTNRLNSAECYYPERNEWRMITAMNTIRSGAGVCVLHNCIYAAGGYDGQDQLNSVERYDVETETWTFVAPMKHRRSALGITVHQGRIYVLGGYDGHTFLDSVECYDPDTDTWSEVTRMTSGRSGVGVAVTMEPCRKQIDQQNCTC

Which EC (1.5-fold NQO1 activity) [1] does the source give for CC[C@@H]1CN(Cc2cc(C(c3ccc4c(nnn4C)c3C)C(C)(C)C(=O)O)ccc2C)Cc2ccc3ccncc3c2O1 (stereo partly drawn) [Example 62, 3-(1,4-dimethyl-1H-benzo[d][1,2,3]triazol-5-yl)-3-(3-(((R)-2-ethyl-2,3-dihydro-[1,4]oxazepino[6,7-h]isoquinolin-4 (5H)-yl)methyl)-4-methylphenyl)-2,2-dimethylpropanoic Acid] here?
The EC (1.5-fold NQO1 activity) was 0.0005 to 0.005 µM.

What about the inhibition at 0.1 µM [2] of the same molecule?
Its inhibition at 0.1 µM is at least 50%.

And the fold induction at 30 mg/kg [3]?
The fold induction at 30 mg/kg was at most 3.

Which EC (1.5-fold NQO1 activity) [1] does the source give for CC[C@@H]1CN(Cc2cc(C(c3ccc4c(nnn4C)c3C)C(C)(C)C(=O)O)ccc2C)Cc2cc(Cl)c3ccccc3c2O1 (stereo partly drawn) [Example 67-(b), 3-(3-(((R)-7-chloro-2-ethyl-2,3-dihydronaphtho[2,1-f][1,4]oxazepin-4 (5H)-yl)methyl)-4-methylphenyl)-3-(1,4-dimethyl-1H-benzo[d][1,2,3]triazol-5-yl)-2,2-dimethylpropanoic Acid] here?
Its EC (1.5-fold NQO1 activity) is 0.005 to 0.05 µM.

What about the inhibition at 0.1 µM [2] of the same molecule?
Its inhibition at 0.1 µM is at least 50%.

And the fold induction at 20 mg/kg [3]?
The fold induction at 20 mg/kg was at most 3.

Which EC (1.5-fold NQO1 activity) [1] does the source give for CC[C@@H]1CN(Cc2cc(C(c3ccc4c(nnn4C)c3C)C(C)(C)C(=O)O)ccc2C)Cc2ccc3ncccc3c2O1 (stereo partly drawn) [Example 28-(b), 3-(1,4-dimethyl-1H-benzo[d][1,2,3]triazol-5-yl)-3-(3-(((R)-2-ethyl-2,3-dihydro-[1,4]oxazepino[7,6-f]quinolin-4(5H)-yl)methyl)-4-methylphenyl)-2,2-dimethylpropanoic Acid] here?
The EC (1.5-fold NQO1 activity) was 0.0005 to 0.005 µM.

What about the inhibition at 0.1 µM [2] of the same molecule?
Its inhibition at 0.1 µM is at least 50%.

What about the fold induction at 30 mg/kg [3] of the same molecule?
The fold induction at 30 mg/kg was 3 to 6.

Which results are given for CC[C@@H]1CN(Cc2cc(C(c3ccc4c(nnn4C)c3C)C(C)(C)C(=O)O)ccc2C)CC2=C(C=CC3=NCCCN32)O1 (stereo partly drawn) [Example 23, 3-(1,4-dimethyl-1H-benzo[d][1,2,3]triazol-5-yl)-3-(3-(((R)-4-ethyl-1,3,4,9,10,11-hexahydro-2H-pyrimido[1′,2′:1,6]pyrido[2,3-f][1,4]oxazepin-2-yl)methyl)-4-methylphenyl)-2,2-dimethylpropanoic Acid]?
EC (1.5-fold NQO1 activity) [1]: 0.05 to 0.5 µM; inhibition at 0.1 µM [2]: ≥ 50%; fold induction at 30 mg/kg [3]: ≤ 3

What does the source list for CC[C@@H]1CN(Cc2cc(C(c3ccc4c(nnn4C)c3C)C(C)(C)C(=O)O)ccc2C)Cc2cc3cc(C)ccc3nc2O1 (stereo partly drawn) [Example 14-(b), 3-(1,4-dimethyl-1H-benzo[d][1,2,3]triazol-5-yl)-3-(3-(((R)-2-ethyl-8-methyl-2,3-dihydro-[1,4]oxazepino[7,6-b]quinolin-4 (5H)-yl)methyl)-4-methylphenyl)-2,2-dimethylpropanoic Acid]?
EC (1.5-fold NQO1 activity) [1]: 0.0005 to 0.005 µM; inhibition at 0.1 µM [2]: ≥ 50%; fold induction at 30 mg/kg [3]: > 6

For CC[C@@H]1CN(Cc2cc(C(c3ccc4c(nnn4C)c3C)C3(C(=O)O)CCCC3)ccc2C)Cc2cc3ncccc3cc2O1 (stereo partly drawn) [Example 83-(b), 1-((1,4-dimethyl-1H-benzo[d][1,2,3]triazol-5-yl) (3-(((R)-2-ethyl-2,3-dihydro-[1,4]oxazepino[7,6-g]quinolin-4 (5H)-yl)methyl)-4-methylphenyl)methyl)cyclopentane-1-carboxylic Acid], which EC (1.5-fold NQO1 activity) [1] is on record?
The EC (1.5-fold NQO1 activity) was 0.005 to 0.05 µM.

What about the fold induction at 20 mg/kg [3] of the same molecule?
The fold induction at 20 mg/kg was over 6.

And the Human metabolic rate [4]?
The Human metabolic rate was “C (150≤metabolic rate<200 pmol/min/mg protein)”.

Which EC (1.5-fold NQO1 activity) [1] does the source give for CC[C@@H]1CN(Cc2cc(C(c3ccc4c(nnn4C)c3C)C3(C(=O)O)CCC3)ccc2C)Cc2cc3ncccc3cc2O1 (single isomer, unassigned) [Example 87] here?
The EC (1.5-fold NQO1 activity) was 0.0005 to 0.005 µM.

And the inhibition at 0.1 µM [2]?
Its inhibition at 0.1 µM is at least 50%.

And the Human metabolic rate [4]?
The Human metabolic rate was “A (metabolic rate<100 pmol/min/mg protein)”.

With CC[C@@H]1CN(Cc2cc(C(c3ccc4c(nnn4C)c3C)C(C)(C)C(=O)O)ccc2C)Cc2cc3[nH]ncc3cc2O1 (stereo partly drawn) [Example 64-(b), 3-(1,4-dimethyl-1H-benzo[d][1,2,3)triazol-5-yl)-3-(3-(((R)-6-ethyl-1,6,7,9-tetrahydro-8H-(1,4]oxazepino[7,6-f]indazol-8-yl)methyl)-4-methylphenyl)-2,2-dimethylpropanoic Acid] as the molecule, how does the EC (1.5-fold NQO1 activity) [1] read?
Its EC (1.5-fold NQO1 activity) is 0.005 to 0.05 µM.

What about the inhibition at 0.1 µM [2] of the same molecule?
The inhibition at 0.1 µM was at least 50%.

And the Human metabolic rate [4]?
The Human metabolic rate was “B (100≤metabolic rate<150 pmol/min/mg protein)”.
